Measured values from PubChem BioAssay (NCI).
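Interpolation was linear, between the two tested concentrations surrounding the appropriate level; five concentrations were tested over 48 hours in 96-well plates. At the TGI there is no net growth.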

Assays:
Test in all cases: NCI tumour cell line growth inhibition, 48 h
HCT-116 colon = system: HCT-116 colon
M19-MEL melanoma = system: M19-MEL melanoma
XF 498 CNS = system: XF 498 CNS
DMS 114 small cell lung = system: DMS 114 small cell lung
DLD-1 colon = system: DLD-1 colon
KM20L2 colon = system: KM20L2 colon
MDA-MB-231 breast = system: MDA-MB-231 breast
PC-3 prostate = system: PC-3 prostate
T-47D breast = system: T-47D breast
MCF7 breast = system: MCF7 breast

What does the source list for CCCCCCC(C)CCCCCCCCCCC(=O)O (stereo not given)?
TGI (HCT-116 colon): > 100 µM; TGI (M19-MEL melanoma): > 100 µM; TGI (XF 498 CNS): > 100 µM; TGI (DMS 114 small cell lung): > 100 µM; TGI (DLD-1 colon): > 100 µM; TGI (KM20L2 colon): > 100 µM

CCOC(OC1=C(C#N)CCCC1)C(CC)[Se]c1ccccc1 (stereo not given) was tested. Which TGI (HCT-116 colon) did it give?
The TGI was 28.6 µM.

What about the TGI (M19-MEL melanoma) of the same compound?
Its TGI is 48.7 µM.

What about the TGI (XF 498 CNS) of the same compound?
The TGI was 46.5 µM.

What about the TGI (DMS 114 small cell lung) of the same compound?
Its TGI is 15.4 µM.

And the TGI (DLD-1 colon)?
Its TGI is 34.4 µM.

And the TGI (KM20L2 colon)?
Its TGI is 62.1 µM.

Cn1c(=O)nc2n(-c3ccc(Cl)c(C(F)(F)F)c3)c3ccccc3nc-2c1=O was tested. Which TGI (HCT-116 colon) did it give?
The TGI was over 79.4 µM.

And the TGI (M19-MEL melanoma)?
Its TGI is 27.8 µM.

What about the TGI (XF 498 CNS) of the same compound?
Its TGI is over 78.1 µM.

What about the TGI (DMS 114 small cell lung) of the same compound?
The TGI was 40.6 µM.

And the TGI (DLD-1 colon)?
Its TGI is over 100 µM.

And the TGI (KM20L2 colon)?
Its TGI is 73.9 µM.

Which results are given for COc1ccc2[nH]c(-c3ccc(O)cc3)cc(=O)c2c1?
TGI (HCT-116 colon): 10.4 µM; TGI (M19-MEL melanoma): > 86 µM; TGI (MDA-MB-231 breast): > 100 µM; TGI (XF 498 CNS): 13.7 µM; TGI (DMS 114 small cell lung): 1.49 µM; TGI (PC-3 prostate): > 100 µM; TGI (T-47D breast): 79.6 µM; TGI (DLD-1 colon): > 100 µM; TGI (MCF7 breast): > 100 µM; TGI (KM20L2 colon): > 18.6 µM

For CCCCCCCCCCCCCCCCCCOCC(COCCOCC[N+]1(CCCCCC(=O)[O-])CCCC1)Oc1ncccn1 (stereo not given), which TGI (HCT-116 colon) is on record?
The TGI was 15.8 µM.

What about the TGI (M19-MEL melanoma) of the same compound?
Its TGI is 1.33 µM.

And the TGI (MDA-MB-231 breast)?
Its TGI is 21.7 µM.

What about the TGI (XF 498 CNS) of the same compound?
Its TGI is 9.46 µM.

And the TGI (DMS 114 small cell lung)?
Its TGI is 7.1 µM.

What about the TGI (PC-3 prostate) of the same compound?
The TGI was 15 µM.

What about the TGI (T-47D breast) of the same compound?
Its TGI is 21.2 µM.

And the TGI (DLD-1 colon)?
The TGI was 14 µM.

What about the TGI (MCF7 breast) of the same compound?
Its TGI is 16.1 µM.

What about the TGI (KM20L2 colon) of the same compound?
The TGI was 14.5 µM.

What does the source list for COc1cc(C2c3cc4c(cc3[C@@H](Nc3ccc5c(c3)OCCO5)C3COC(=O)[C@H]23)OCO4)cc(OC)c1O (stereo not given in full)?
TGI (HCT-116 colon): 8 µM; TGI (M19-MEL melanoma): > 35.9 µM; TGI (MDA-MB-231 breast): > 100 µM; TGI (XF 498 CNS): 5.89 µM; TGI (DMS 114 small cell lung): 3.42 µM; TGI (PC-3 prostate): > 100 µM; TGI (DLD-1 colon): 5.17 µM; TGI (MCF7 breast): > 100 µM; TGI (KM20L2 colon): 9.05 µM

With C=C1C(=O)C23C(O)C1CC[C@H]2C12CCCC(C)(COC(C)=O)[C@H]1[C@H](O)[C@]3(O)OC2 (stereo not given in full) as the compound, how does the TGI (HCT-116 colon) read?
The TGI was 2.3 µM.

What about the TGI (M19-MEL melanoma) of the same compound?
Its TGI is 4.69 µM.

What about the TGI (XF 498 CNS) of the same compound?
Its TGI is 2.71 µM.

And the TGI (DMS 114 small cell lung)?
Its TGI is 4.35 µM.

What about the TGI (PC-3 prostate) of the same compound?
Its TGI is 3.78 µM.

What about the TGI (T-47D breast) of the same compound?
The TGI was 9.59 µM.

What about the TGI (DLD-1 colon) of the same compound?
Its TGI is 1.7 µM.

And the TGI (KM20L2 colon)?
Its TGI is 3.01 µM.
